Structures can show the parent of a compound that is named as a salt.
molecular target: purified CK2α enzyme (Homo sapiens, UniProt P68400); assay: CK2 Protein Kinase Inhibition Assay (coupled PK/LDH assay); format: biochemical; settings: CK2 enzyme 25 nM, 100 μM ATP, 37° C., Morrison equation
Experimental: A coupled PK (pyruvate kinase)/LDH (lactate dehydrogenase) assay was used to measure compounds' ability to inhibit purified CK2α enzyme.
The ADP product of kinase CK2a is the cofactor for PK. Phospho(enol)pyruvate (PEP) PEP is metabolized by pyruvate kinase to yield pyruvate, which is the substrate for LDH.
Serially diluted compounds were pre-incubated for 10 min at 37° C. with and 1.5 mM […] peptide substrate, 6 U/ml PK and 10 U/ml LDH (purchased from Sigma-Aldrich), 100 μM ATP, 1.2 mM NADH, 4 mM PEP in the reaction buffer (50 mM Tris (pH 8.25), 0.1 M NaCl, 10 mM magnesium acetate). The reaction was initiated by the addition of an equal volume of purified CK2 enzyme (final concentration 25 nM) diluted in the reaction buffer. Absorbance at 340 nm was measured overtime (for 30 min) at 37° C.; as NADH was converted to NAD+ the absorbance decreases. Absorbance decrease rate (per min) was plotted against the compound concentration and Ki is determined by GraphPad Prism using Morrison equation. All data points were performed in triplicate and each compound was tested in at least two separate experiments.
To this end, K, values of less than 2.5 nM are labelled as “+++”, from 2.5 nM to 10 nM are labelled as “++”, and greater than 10 nM are labelled as “+”.

Chain of purified CK2α enzyme (P68400 whole entry): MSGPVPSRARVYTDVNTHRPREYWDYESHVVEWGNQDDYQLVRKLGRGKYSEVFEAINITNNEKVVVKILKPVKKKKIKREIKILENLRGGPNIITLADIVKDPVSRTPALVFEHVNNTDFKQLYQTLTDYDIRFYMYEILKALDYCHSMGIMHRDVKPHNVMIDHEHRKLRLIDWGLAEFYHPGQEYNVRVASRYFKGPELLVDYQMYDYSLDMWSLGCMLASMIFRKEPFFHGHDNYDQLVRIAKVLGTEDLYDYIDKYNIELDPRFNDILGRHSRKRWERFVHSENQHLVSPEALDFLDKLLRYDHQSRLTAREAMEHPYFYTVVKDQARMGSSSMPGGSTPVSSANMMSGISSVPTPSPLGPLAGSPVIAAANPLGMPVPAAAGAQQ

SMILES	Ki [nM]
CS(=O)(=O)Cc1cc(Nc2cc(NC3CC3)n3ncc(C#N)c3n2)ccc1C1(CN)CC1 [Example 39, 5-((4-(1-(Aminomethyl)cyclopropyl)-3-((methylsulfonyl)methyl)phenyl)amino)-7-(cyclopropylamino)pyrazolo[1,5-a]pyrimidine-3-carbonitrile mono trifluoroacetic acid salt]	< 2.5
CS(=O)(=O)Cc1cc(Nc2cc(NC3CC3)n3ncc(C#N)c3n2)ccc1N1CC(N)C1 [Example 41, 5-((4-(3-Aminoazetidin-1-yl)-3-((methylsulfonyl)methyl)phenyl)amino)-7-(cyclopropylamino)pyrazolo[1,5-a]pyrimidine-3-carbonitrile]	2.5 to 10
CS(=O)(=O)Cc1cc(Nc2cc(NC3CC3)n3ncc(C#N)c3n2)ccc1N1CC(CN)C1 [Example 43, 5-((4-(3-(Aminomethyl)azetidin-1-yl)-3-((methylsulfonyl)methyl)phenyl)amino)-7-(cyclopropylamino)pyrazolo[1,5-a]pyrimidine-3-carbonitrile]	< 2.5
CN(c1ccc(Nc2cc(NC3CC3)n3ncc(C#N)c3n2)cc1CS(C)(=O)=O)C1CNC1 [Example 45, 5-((4-(Azetidin-3-yl(methyl)amino)-3-((methylsulfonyl)methyl)phenyl)amino)-7-(cyclopropylamino)pyrazolo[1,5-a]pyrimidine-3-carbonitrile]	2.5 to 10
CN(CCN)c1ccc(Nc2cc(NC3CC3)c3ncc(C#N)n3n2)cc1CS(C)(=O)=O [Example 48, 6-((4-((2-aminoethyl)(methyl)amino)-3-((methylsulfonyl)methyl)phenyl)amino)-8-(cyclopropylamino)imidazo[1,2-b]pyridazine-3-carbonitrile mono trifluoroacetic acid salt]	2.5 to 10
CN(CCN)c1ccc(Nc2nc(NC3CC3)c3ncc(C#N)n3n2)cc1CS(C)(=O)=O [Example 50, 2-((4-((2-aminoethyl)(methyl)amino)-3-((methylsulfonyl)methyl)phenyl)amino)-4-(cyclopropylamino)imidazo[2,1-f][1,2,4]triazine-7-carbonitrile mono trifluoroacetic acid salt]	2.5 to 10
CN(CCN)c1ccc(Nc2nc(NC3CC3)n3ncc(C#N)c3n2)cc1CS(C)(=O)=O [Example 52, 2-((4-((2-aminoethyl)(methyl)amino)-3-((methylsulfonyl)methyl)phenyl)amino)-4-(cyclopropylamino)pyrazolo[1,5-a][1,3,5]triazine-8-carbonitrile mono trifluoroacetic acid salt]	2.5 to 10
CN(CC1(N)CC1)c1ccc(Nc2cc(NC3CC3)n3ncc(C#N)c3n2)cc1CS(C)(=O)=O [Example 66, 5-((4-(((1-aminocyclopropyl)methyl)(methyl)amino)-3-((methylsulfonyl)methyl)phenyl)amino)-7-(cyclopropylamino)pyrazolo[1,5-a]pyrimidine-3-carbonitrile mono trifluoroacetic acid salt]	< 2.5

test system: not given; assay: not given; settings: not given

SMILES	melting point [°C]
CN(CCN)c1ccc(Nc2cc(NC3CC3)c3ncc(C#N)n3n2)cc1CS(C)(=O)=O (as salt: trifluoroacetic acid salt) [Example 48, 6-((4-((2-aminoethyl)(methyl)amino)-3-((methylsulfonyl)methyl)phenyl)amino)-8-(cyclopropylamino)imidazo[1,2-b]pyridazine-3-carbonitrile mono trifluoroacetic acid salt]	121 to 124
CN(CCN)c1ccc(Nc2nc(NC3CC3)c3ncc(C#N)n3n2)cc1CS(C)(=O)=O (as salt: trifluoroacetic acid salt) [Example 50, 2-((4-((2-aminoethyl)(methyl)amino)-3-((methylsulfonyl)methyl)phenyl)amino)-4-(cyclopropylamino)imidazo[2,1-f][1,2,4]triazine-7-carbonitrile mono trifluoroacetic acid salt]	113 to 117
CN(CCN)c1ccc(Nc2nc(NC3CC3)n3ncc(C#N)c3n2)cc1CS(C)(=O)=O (as salt: trifluoroacetic acid salt) [Example 52, 2-((4-((2-aminoethyl)(methyl)amino)-3-((methylsulfonyl)methyl)phenyl)amino)-4-(cyclopropylamino)pyrazolo[1,5-a][1,3,5]triazine-8-carbonitrile mono trifluoroacetic acid salt]	55 to 59
CN(CC1(N)CC1)c1ccc(Nc2cc(NC3CC3)n3ncc(C#N)c3n2)cc1CS(C)(=O)=O (as salt: trifluoroacetic acid salt) [Example 66, 5-((4-(((1-aminocyclopropyl)methyl)(methyl)amino)-3-((methylsulfonyl)methyl)phenyl)amino)-7-(cyclopropylamino)pyrazolo[1,5-a]pyrimidine-3-carbonitrile mono trifluoroacetic acid salt]	185 to 189
CN(CCN)c1ccc(Nc2cc(NC3CC3)c3ncc(C#N)n3n2)cc1C[S+](C)[O-] (racemic) (as salt: trifluoroacetic acid salt) [Example 47, (±)-6-((4-((2-Aminoethyl)(methyl)amino)-3-((methylsulfinyl)methyl)phenyl)amino)-8-(cyclopropylamino)imidazo[1,2-b]pyridazine-3-carbonitrile mono trifluoroacetic acid salt]	91 to 94
CN(CCN)c1ccc(Nc2nc(NC3CC3)c3ncc(C#N)n3n2)cc1C[S+](C)[O-] (racemic) (as salt: trifluoroacetic acid salt) [Example 49, (±)-2-((4-((2-aminoethyl)(methyl)amino)-3-((methylsulfinyl)methyl)phenyl)amino)-4-(cyclopropylamino)imidazo[2,1-f][1,2,4]triazine-7-carbonitrile mono trifluoroacetic acid salt]	93 to 97
CN(CCN)c1ccc(Nc2nc(NC3CC3)n3ncc(C#N)c3n2)cc1C[S+](C)[O-] (racemic) (as salt: trifluoroacetic acid salt) [Example 51, (±)-2-((4-((2-aminoethyl)(methyl)amino)-3-((methylsulfinyl)methyl)phenyl)amino)-4-(cyclopropylamino)pyrazolo[1,5-a][1,3,5]triazine-8-carbonitrile mono trifluoroacetic acid salt]	78 to 82
CC(N)c1ccc(Nc2cc(NC3CC3)n3ncc(C#N)c3n2)cc1C[S+](C)[O-] (racemic) (as salt: trifluoroacetic acid salt) [Example 58, (±)-5-((4-((R,S)-1-Aminoethyl)-3-((methylsulfinyl)methyl)phenyl)amino)-7-(cyclopropylamino)pyrazolo[1,5-a]pyrimidine-3-carbonitrile mono trifluoroacetic acid salt]	161 to 165
C[S+]([O-])Cc1cc(Nc2cc(NC3CC3)n3ncc(C#N)c3n2)ccc1C1(N)CC1 (racemic) (as salt: trifluoroacetic acid salt) [Example 59, (±)-5-((4-(1-Aminocyclopropyl)-3-((methylsulfinyl)methyl)phenyl)amino)-7-(cyclopropylamino)pyrazolo[1,5-a]pyrimidine-3-carbonitrile mono trifluoroacetic acid salt]	185 to 189
C/C(=C\CN)c1ccc(Nc2cc(NC3CC3)n3ncc(C#N)c3n2)cc1C[S+](C)[O-] (racemic) (as salt: trifluoroacetic acid salt) [Example 60, (±)-(E)-5-((4-(4-aminobut-2-en-2-yl)-3-((methylsulfinyl)methyl)phenyl)amino)-7-(cyclopropylamino)pyrazolo[1,5-a]pyrimidine-3-carbonitrile mono trifluoroacetic acid salt]	249 to 253
C[S+]([O-])Cc1cc(Nc2cc(NC3CC3)n3ncc(C#N)c3n2)ccc1C1CCCNC1 (racemic) (as salt: trifluoroacetic acid salt) [Example 61, (±)-7-(Cyclopropylamino)-5-((3-((methylsulfinyl)methyl)-4-((R,S)-piperidin-3-yl)phenyl)amino)pyrazolo[1,5-a]pyrimidine-3-carbonitrile mono trifluoroacetic acid salt]	55 to 59
C[S+]([O-])Cc1cc(Nc2cc(NC3CC3)n3ncc(C#N)c3n2)ccc1C1=CCNC1 (racemic) (as salt: trifluoroacetic acid salt) [Example 62, (±)-7-(Cyclopropylamino)-5-((4-(2,5-dihydro-1H-pyrrol-3-yl)-3-((methylsulfinyl)methyl)phenyl)amino)pyrazolo[1,5-a]pyrimidine-3-carbonitrile mono trifluoroacetic acid salt]	147 to 151
C[S+]([O-])Cc1cc(Nc2cc(NC3CC3)n3ncc(C#N)c3n2)ccc1C1CCNC1 (racemic) (as salt: trifluoroacetic acid salt) [Example 63, (±)-7-(Cyclopropylamino)-5-((3-((methylsulfinyl)methyl)-4-((R,S)-pyrrolidin-3-yl)phenyl)amino)pyrazolo[1,5-a]pyrimidine-3-carbonitrile mono trifluoroacetic acid salt]	173 to 177

Reference: patent publication US10227344B2, “CK2 inhibitors, compositions and methods thereof” (Polaris Pharmaceuticals, Inc., priority 2016, dated 2019)
